By solubility is commonly meant the concentration that dissolves in the medium under given conditions.

Converted amounts (≈) assume the structure as drawn.

Data set [1] in a line: Solubility of ionized and non-ionized forms and ionization constant. The class given is physicochemical. From the text:
(§1) [formula] in which Ka is the ionization constant (dissociation constant) of the active compound of the medicament in water, Si is the solubility of the ionized form of the compound, and Su is the solubility of the non-ionized form of the compound. Si and Su can be easily obtained by measuring the drug solubility at two extreme pH levels where the ionized or non-ionized species are dominating. For example, after determining the Si and Su of propranolol and sildenafil, their pHmax values are calculated to be 7.62 and 4.25, respectively.
(§2) It has been investigated that permeability across the sublingual mucosa is dependent on the concentration of non-ionized propranolol in the environment. When a formulation of propranolol provides saliva with pH of about 7.2 to about 7.8, propranolol should maintain relatively high solubility as well as high fraction of non-ionized form in the saliva of human oral cavity. Preferably, the formulation for sublingual delivery is at about pH 7.6. This can be confirmed by equation (I). For propranolol.

Data set [2] in a line: pHmax calculated from Ka, Si and Su. The data set is classed as physicochemical. The note with it: calculated after determining Si and Su.
Text: [formula] in which Ka is the ionization constant (dissociation constant) of the active compound in water, Si is the solubility of the ionized form of the compound, and Su is the solubility of the non-ionized form of the compound.
as §1, §2

For data set [3] the following is noted: oral administration of propranolol tablets, cited from earlier work.

In turn, `CC(C)NCC(O)COc1cccc2ccccc12` (stereo not drawn) [propranolol, 1-(isopropylamino)-3-(1-naphthyloxy)-2-propanol] displayed a solubility in data set [1] of 539 µg/mL (≈ 2080 µM). The pHmax in data set [2] is listed as 7.62. In data set [3], the onset of action entry was “over 1 hr” and the plasma half-life is 2.8 to 4.4 h. The bioavailability in data set [3] (hepatic first-pass effect) is listed as 10-30%.
As to `CCCc1nn(C)c2c(=O)[nH]c(-c3cc(S(=O)(=O)N4CCN(C)CC4)ccc3OCC)nc12` [sildenafil], the pHmax in data set [2] is on record as 4.25.

The record behind these values is patent US8012503B2, “Method of enhancing absorptions of transmucosal administration formulations” (The Chinese University of Hong Kong, priority 2004, dated 2011).
